In the assay the test system is human telomeric G-quadruplex (139-nt GQ strand) in DNA origami nanobowl (DNA, G4) TTACCTTTCCCCTCTGGCAAAACTATTCCGGTAAACTTAGGGTTAGGGTTAGGGTTAGGGTTATTTTTTTTATTTCTTCAGGCTTAACCATGCATTCCGATTGCAGCTTGCATCCATTGCATCGCTTGAATTGTCCAGC
Kind of assay: optical tweezers mechanical unfolding, force populations. The following applies: 100 mM KCl, 10 mM MgCl2; 20 mM Tris pH 7.8, 1 mM EDTA; free PDS 20-500 nM; bound populations outside and inside nanobowl rise.

The structures appear in SMILES notation.

Regarding `NCCOc1cc(C(=O)Nc2cc(OCCN)c3ccccc3n2)nc(C(=O)Nc2cc(OCCN)c3ccccc3n2)c1`, the binding result was “yes”.

Values taken from publication PMC8789071 (2022).
